Measurements taken from patent US20250353835A1, “N-TETRAZOLYL ARYL UREA-BASED DERIVATIVES, PREPARATION METHOD THEREFOR, AND USE THEREOF” (Hangzhou Yirui Pharmaceutical Technology Co., Ltd, priority 2022, published 2025).

Assays:
[1] = Drug concentration in rat retinas after intraocular injection (HPLC); type: in vivo, Wistar rats; conditions: male, Wistar, rat, retina, other: intraocular injection, 5 μL of 0.5% solution per eye; Day 7 after intraocular injection of 0.5% (5 μL per eye); read-out: retinal drug concentration
Excerpt: 1.1 Experimental aminals: SPF-grade male Wistar rats weighed 180-220 g.
1.2 Drugs and reagents: Compound 71; sodium chloride injection (Shandong Qidu Pharmaceutical Co., Ltd., Batch No.: 3B151014124); acetonitrile (chromatographically pure, TEDIA, USA); methanol (chromatographically pure, SIGMA-ALDRICH product); triethylamine (analytically pure, Hangzhou Gaojing Fine Chemical Co., Ltd.).
1.3 Experimental grouping and administration: according to the sampling time, 33 male Wistar rats were divided into 11 groups (three rats per group) of: (1) control group; (2) 0 h; (3) 2 h; (4) 6 h; (5) 24 h; (6) 48 h; (7) 72 h; (8) 5 d; (9) 7 d; (10) 10 d; (11) 14 d. Three rats in the control group were injected with solvent (sterile normal saline) intraocularly, and the remaining 30 rats were injected with Compound 71 intraocularly at a concentration of 0.5% by using a 5 μL microinjector, and 5 μL of drug was injected per bulbus oculi.
1.4 Sampling and detection index: The retina of the rat in the control group was taken on Day 14 (14 d), and the retina of the remaining 30 rats was taken at the corresponding time points. The retina were frozen in liquid nitrogen, and then subjected to the subsequent HPLC detection.
1.5.1 Chromatographic conditions: The mobile phase was chromatographic grade acetonitrile-water=25-75 (v/v). The flow rate was 0.5 mL/min. The column temperature was 25° C. The UV detection wavelength was 254 nm. The injection volume was 20 μL.
1.5.2 Sample processing and preparation: the sample of the rat retina was taken out from the ultra-low temperature (−80° C.) refrigerator, accurately weighed and placed in a glass homogenizer, and ethyl acetate as an organic solvent pre-cooled in a 4° C. refrigerator was added at a ratio of 100 mL/g. The homogenizer was placed in an ice bath for homogenization. After homogenization, all the homogenate was poured into a 5 mL stoppered centrifuge tube. The centrifugation was performed at a low temperature of 4° C. for 5 min (5000 r/min). All the organic phase as the upper layer was accurately taken out and placed in a glass tube with conical bottom. The remaining residue of retina was extracted with 2 mL ethyl acetate repeatedly once. After centrifugation, the two organic phases were combined. Then, the centrifuge tube with conical bottom was blowed for dryness in a nitrogen flow in a 45° C. water bath. The residue was redissolved with 0.1 mL of chromatographic methanol, vortex mixed for 1 min, and centrifuged for 5 min at a high speed of 18000 r/min. 20 μL of the supernatant was taken, and analyzed in a high-performance liquid chromatography system.
1.5.3 Sample determination: After intraocular injection of 5 μL of 0.5% Compound 71, the retina was taken at different time points to analyze the drug content of the test compound in the retina.
1.5.4 Experimental results and conclusions: According to the retinal drug concentration-time curve, it is in conformity to the non-absorption two-compartment model. According to the pharmacokinetic non-absorption two-compartment model theory, the pharmacokinetic parameters of the drug were calculated.

human B1R = molecular target: T1, human B1R (Homo sapiens, UniProt P46663); assay: FLIPR calcium ion flux assay, inhibitory activity against human B1R; type: cell-based; conditions: HEK293 cells stably expressing human B1R; agonist [Lys-des-Arg9]-Bradykinin 4.6 nM (EC80); FLIPR method
T1 construct: host or cells: HEK293
T1 sequence (P46663 1-353): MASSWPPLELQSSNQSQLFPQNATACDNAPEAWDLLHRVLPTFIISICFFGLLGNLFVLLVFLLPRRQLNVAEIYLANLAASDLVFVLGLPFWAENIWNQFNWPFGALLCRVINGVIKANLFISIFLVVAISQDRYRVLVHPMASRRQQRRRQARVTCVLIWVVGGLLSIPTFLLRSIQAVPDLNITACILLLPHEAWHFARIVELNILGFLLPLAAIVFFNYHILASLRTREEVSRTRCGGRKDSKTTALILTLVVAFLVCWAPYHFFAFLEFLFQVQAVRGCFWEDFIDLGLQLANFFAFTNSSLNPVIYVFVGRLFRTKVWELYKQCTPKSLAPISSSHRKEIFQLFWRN
Outline: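 HEK293 cells stably expressing human B1R, loaded with Fluo-4 Direct plus probenecid; compounds 9-point 1:5 series from 30 μM, duplicate, preincubated 10 min. Stimulation with [Lys-des-Arg9]-bradykinin at 4.6 nM final (EC80); peak fluorescence at 538 nm gave IC50.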

[2] = system: mouse model of ragweed pollen-induced allergic conjunctivitis; assay: Mouse model of ragweed pollen-induced allergic conjunctivitis; type: in vivo, Balb/c mice
Method: SPF-grade Balb/c mice (half male and half female, 6-8 weeks old) were used as experimental animals. On Day 0 and Day 6, ragweed pollen footpad injection was injected subcutaneously into the footpads of mice for sensitization (65 μl per mouse). On Days 10-14, in the model group, eye drop of ragweed pollen was applied to both eyes of the mice (10 μl per mouse) once a day. The eye drops were applied for 5 consecutive days to trigger local allergic conjunctivitis (Wu B, et al., Frontiers in Immunology, 2021, 12:4754). […] On Day 14, within 30 minutes after the final challenge, the ocular clinical symptoms of the mice were observed under a microscope and scored according to the scoring criteria reported by Magone et al. (MerayoLloves J, et al., J Allergy Clin Immunol (1996) 97(5):1129-40; Magone M T, et al., Clin Immunol Immunopathol (1998) 87(1):75-84), the allergic response of the eyes were observed, including 4 indexes: conjunctival edema, conjunctival congestion, eyelid congestion and edema, and tearing. The scores were recorded as 0-3 points according to the severity (including none, mild, moderate and severe). The left eye of the mouse was taken with the eyelid (keeping the conjunctiva intact), fixed with polyformaldehyde, sectioned in paraffin, Hematoxylin-Eosin stained (HE stained), and toluidine blue stained (for detection of mast cells). Photographs were taken to analyze the inflammatory cell infiltration of the conjunctival tissue, and observe whether the mast cells in the conjunctiva aggregated and whether a phenomenon of degranulation occurred. The expression of allergic indicators IL-4 and IgE in the conjunctival tissue was detected by immunohistochemistry.
The mouse eye, including the eyelids (with intact conjunctiva), was sectioned after deparaffinization, and subjected to antigen retrieval and serum blocking.
Diluted IL-4 or IgE antibodies were added and incubated overnight. After incubation with secondary antibodies, DAB staining was performed, followed by counterstaining with hematoxylin. The slides were then mounted and observed under an […], with photographs taken. Semi-quantitative analysis was conducted using Image-J software. Based on the cumulative optical density and regional area values of each image, the average optical density was calculated to detect the positive expression of IL-4 or IgE.

[3] = system: rat model of diabetic retinopathy; assay: Rat model of diabetic retinopathy (STZ); type: in vivo, Wistar rats; conditions: Concanavalin A/FITC; 14 days after intravitreal injection; compounds 0.25%, dexamethasone 0.1%
Method: 3.1 Laboratory animals: SPF-grade male Wistar rats, weighed 180-220 g.
3.3 Animal modeling and grouping: After one week of adaptive feeding, 134 male Wistar rats (weighed 220-260 g) were administered 65 mg/kg of STZ by one-time intraperitoneal injection to prepare a rat model of type I diabetic. The rats were fasting but water was allowable overnight for 15 h. The formulated STZ solution was intraperitoneally injected according to body weight. After 1 h, the diet was resumed and blood glucose was measured at 72 h. The successfully modeled diabetic rats (120 rats) were selected for continued feeding, and randomly divided into the following 6 groups according to blood glucose (20 rats per group), plus a group of normal rats with no STZ injected as a negative control group.
3.4 Administration: The rats continued to be fed until blood glucose was measured once before administration. After blood glucose reached the standard, drugs were intravitreally injected, and indexs were subsequently tested after 14 days. Blood glucose was measured once before sampling.
3.5 Evans blue staining method (7 groups, 6 rats per group): Evans blue was intravenously injected. 2 hours later, normal saline was perfused into the left ventricle. The retina was taken to compare between the stained area and the unstained area to detect retinal vascular permeability.
3.6 Retinal leukocyte stasis detection method (7 groups, 6 rats per group): PBS was perfused into the left ventricle for 1 min to remove red blood cells and other substances. Concanavalin A (FITC (Sigma, C7642) was perfused (20 μg/ml in PBS, 5 mg/kg) to mark adherent leukocytes. 4% PFA was perfused for 4 min for fixation. 1% Albumin (Sigma, A6414) (in PBS) was perfused for 1 min, and then PBS was perfused for 2 min. The retina was taken for retinal wholemount. Thereafter, the stasis of leukocytes on the vascular endothelium was observed under a fluorescence microscope. […]

[4] = system: rat model of acute lung injury; assay: Rat model of LPS-induced acute lung injury; type: in vivo, Wistar rats; set-up: IL-6 (serum) / IL-6 (homogenate of lung tissue) / IL-6 (bronchoalveolar lavage fluid) / TNF-α (serum) / TNF-α (homogenate of lung tissue) / TNF-α (bronchoalveolar lavage fluid): unit not given here; conditions: ELISA; test drug 30 mg/kg i.p. 2 h before and 1 h after LPS; 12 h after modeling
Method: 1. Experimental aminals: SPF-grade male Wistar rats, weighed 180-220 g, 6-8 weeks old.
3. Establishment of animal model: The rats were adaptively fed for one week. After the animals were anesthetized, 3 mg/kg LPS (B8) was injected intratracheally to prepare the rat model of acute lung injury.
4. […] At 2 hours before modeling (before tracheal injection of LPS), the test drug (30 mg/kg, the vehicle was 0.3% DMSO in saline) was intraperitoneally injected. At 1 hour after modeling, the test drug was administered once again (at the same dose). At 12 hours after modeling, the animals were sacrificed, and the samples were collected for the tests of various indexes. […]
5.2 ELISA method: 5 rats per group. The serum, alveolar lavage fluid, and tissue homogenate of one lung of each of the rats were subjected to ELISA assay to determine the TNF-α and IL-6 levels.

[5] = immunohistochemistry, dexamethasone 0.1% eye drop

Compound | concentration at 7 d [1] | IC50 (human B1R) | Clinical symptom score ([2]; 0.1% dexamethasone eye drop, twice a day for 14 days, Day 14 within 30 minutes after final challenge) | expression of IL-4 in ocular tissue (average optical density) [2, 5] | expression of IgE in ocular tissue (average optical density) [2, 5] | retinal leukocyte stasis, Leukocyte count [3] | IL-6 (bronchoalveolar lavage fluid) [4] | IL-6 (homogenate of lung tissue) [4] | IL-6 (serum) [4] | TNF-α (bronchoalveolar lavage fluid) [4] | TNF-α (homogenate of lung tissue) [4] | TNF-α (serum) [4]
COc1ccc(-c2ccc(NC(=O)N3CCC(C(F)(F)F)CC3)cc2-c2nn[nH]n2)cc1OC [Compound 2, N-(3′,4′-dimethoxy-2-(2H-tetrazol-5-yl)-[1,1′-biphenyl]-4-yl)-4-(trifluoromethyl)piperidine-1-carboxamide] | 1.54 µM | 0.148 µM | – | – | – | – | – | – | – | – | – | –
C[C@@H]1C[C@H]2[C@@H]3CCC4=CC(=O)C=C[C@]4(C)[C@@]3(F)[C@@H](O)C[C@]2(C)[C@@]1(O)C(=O)CO [Dexamethasone, dexamethasone, reference compound] | – | – | 4.75 ± 0.51 | 0.23±0.09 | 0.53±0.11 | 4.17 ± 3.21 | 115.59 ± 67.57 | 150.17 ± 100.46 | 255.58 ± 109.87 | 13.62 ± 7.33 | 19.17 ± 7.55 | 57.26 ± 19.27
